# System: Hamster
# Test: Lipid lowering effect in hamster assessed as reduction in total cholesterol level in serum at 100 mg/kg, po bid administered at 9 a.m and 4 p.m for 14 days relative to control
# Type: functional, Cricetinae
# Design: scale not given: the % may be the effect or the level left
# Settings: time 14 day
row,SMILES,Activity [%]
1,COc1cccc([C@H]2O[C@H](CC(=O)N3CCC(CC(=O)O)CC3)C(=O)N(CC(C)(C)CO)c3ccc(Cl)cc32)c1OC,2

# Biological target: T1, Squalene synthase (Rattus norvegicus, UniProt Q02769)
# T1 sequence (Q02769 whole entry): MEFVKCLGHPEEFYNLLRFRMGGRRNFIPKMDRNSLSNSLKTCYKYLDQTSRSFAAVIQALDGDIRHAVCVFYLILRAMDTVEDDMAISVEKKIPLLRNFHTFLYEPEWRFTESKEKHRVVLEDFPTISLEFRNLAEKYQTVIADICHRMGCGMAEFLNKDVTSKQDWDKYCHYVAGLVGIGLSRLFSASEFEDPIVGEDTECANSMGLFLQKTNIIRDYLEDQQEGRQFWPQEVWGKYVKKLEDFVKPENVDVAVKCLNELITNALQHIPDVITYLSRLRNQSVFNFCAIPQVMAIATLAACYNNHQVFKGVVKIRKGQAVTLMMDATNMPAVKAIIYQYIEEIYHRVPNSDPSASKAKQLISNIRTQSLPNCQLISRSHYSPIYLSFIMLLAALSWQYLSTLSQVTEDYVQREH
# Test: Inhibition of squalene synthase in rat liver microsomes using [3H] farnesyl pyrophosphate as substrate preincubated for 10 mins followed by substrate addition and measured after 30 mins by liquid scintillation counter analysis
# Design: species or system Microsome
# Settings: not given
row,SMILES,IC50 [µM]
1,CCOC(=O)[C@@H]1CCC[C@H](N2CCOC(c3ccccc3OC)c3cc(Cl)ccc3N(CC(C)(C)C)C(=O)CC2=O)C1 (some centres undefined),0.017
2,COc1ccccc1C1OCCN(C2CCC(C(=O)O)CC2)C(=O)CC(=O)N(CC(C)(C)C)c2ccc(Cl)cc21 (centres undefined),0.046
3,COc1ccccc1C1OCCC(=O)N(CC(=O)N2CCC(C(=O)O)CC2)CC(=O)N(CC(C)(C)C)c2ccc(Cl)cc21 (centres undefined),> 0.6
4,COc1ccccc1C1OCCN([C@H]2CC[C@@H](C(=O)O)CC2)C(=O)CC(=O)N(CC(C)(C)C)c2ccc(Cl)cc21 (some centres undefined),0.45
5,COc1ccccc1C1OCCN([C@H]2CCC[C@H](C(=O)O)C2)C(=O)CC(=O)N(CC(C)(C)C)c2ccc(Cl)cc21 (some centres undefined),> 0.6
6,COc1ccccc1C1OCC(=O)N(CC(=O)O)CCC(=O)N(CC(C)(C)C)c2ccc(Cl)cc21 (centres undefined),> 0.6
7,COc1ccccc1C1OCCN(C2CCN(C(=O)C(=O)O)CC2)C(=O)CC(=O)N(CC(C)(C)C)c2ccc(Cl)cc21 (centres undefined),> 0.6
8,CCOC(=O)C(=O)N1CCCOC(c2ccccc2OC)c2cc(Cl)ccc2N(CC(C)(C)C)C(=O)C1 (centres undefined),> 0.6
9,CCOC(=O)CN1CCC(=O)N(CC(C)(C)C)c2ccc(Cl)cc2C(c2ccccc2OC)OCC1=O (centres undefined),> 0.6
10,COc1ccccc1C1OCCCN(C(=O)N2CCCC(C(=O)O)C2)CC(=O)N(CC(C)(C)C)c2ccc(Cl)cc21 (centres undefined),0.17
11,CCOC(=O)C(=O)N1CCCC(N2CCOC(c3ccccc3OC)c3cc(Cl)ccc3N(CC(C)(C)C)C(=O)CC2=O)C1 (centres undefined),0.014
12,COc1ccccc1C1OCCCN(C(=O)N2CCC(C(=O)O)CC2)CC(=O)N(CC(C)(C)C)c2ccc(Cl)cc21 (centres undefined),0.012
13,COc1ccccc1C1OCCCN(C(=O)N2CCC(CC(=O)O)CC2)CC(=O)N(CC(C)(C)C)c2ccc(Cl)cc21 (centres undefined),0.007
14,COc1ccccc1C1OCCN(CC(=O)O)C(=O)CC(=O)N(CC(C)(C)C)c2ccc(Cl)cc21 (centres undefined),> 0.6
15,CCOC(=O)CC1CCN(C(=O)N2CCCOC(c3ccccc3OC)c3cc(Cl)ccc3N(CC(C)(C)C)C(=O)C2)CC1 (centres undefined),0.02
16,CCOC(=O)CN1CC(=O)N(CC(C)(C)C)c2ccc(Cl)cc2C(c2ccccc2OC)OCCC1=O (centres undefined),> 0.6
17,CCOC(=O)[C@@H]1CCC[C@@H](N2CCOC(c3ccccc3OC)c3cc(Cl)ccc3N(CC(C)(C)C)C(=O)CC2=O)C1 (some centres undefined),0.019
18,CCOC(=O)C1CCN(C(=O)CN2CC(=O)N(CC(C)(C)C)c3ccc(Cl)cc3C(c3ccccc3OC)OCCC2=O)CC1 (centres undefined),> 0.6
19,CCOC(=O)CN1CCOC(c2ccccc2OC)c2cc(Cl)ccc2N(CC(C)(C)C)C(=O)CC1=O (centres undefined),0.14
20,COc1ccccc1C1OCCN(CC(=O)N2CCC(C(=O)O)CC2)C(=O)CC(=O)N(CC(C)(C)C)c2ccc(Cl)cc21 (centres undefined),> 0.6
21,CCOC(=O)[C@H]1CC[C@H](N2CCOC(c3ccccc3OC)c3cc(Cl)ccc3N(CC(C)(C)C)C(=O)CC2=O)CC1 (some centres undefined),0.016
22,COc1ccccc1C1OCCCNCC(=O)N(CC(C)(C)C)c2ccc(Cl)cc21 (centres undefined),> 0.6
23,CCOC(=O)[C@H]1CCC[C@H](N2CCOC(c3ccccc3OC)c3cc(Cl)ccc3N(CC(C)(C)C)C(=O)CC2=O)C1 (some centres undefined),0.054
24,CCOC(=O)C(=O)N1CCC(N2CCOC(c3ccccc3OC)c3cc(Cl)ccc3N(CC(C)(C)C)C(=O)CC2=O)CC1 (centres undefined),0.025
25,COc1ccccc1C1OCCN([C@@H]2CCC[C@H](C(=O)O)C2)C(=O)CC(=O)N(CC(C)(C)C)c2ccc(Cl)cc21 (some centres undefined),0.0047

row,SMILES,IC50 [µM]
1,COc1ccccc1C1OCCCN(S(=O)(=O)c2ccccc2[N+](=O)[O-])CC(=O)N(CC(C)(C)C)c2ccc(Cl)cc21 (centres undefined),> 0.6
2,CCOC(=O)C1CCCN(C(=O)CN2CCOC(c3ccccc3OC)c3cc(Cl)ccc3N(CC(C)(C)C)C(=O)CC2=O)C1 (centres undefined),0.064
3,COc1ccccc1C1OCCN(C(=O)C(=O)O)CCC(=O)N(CC(C)(C)C)c2ccc(Cl)cc21 (centres undefined),> 0.6
4,COc1ccccc1C1OCCN(CC(=O)N2CCCC(C(=O)O)C2)C(=O)CC(=O)N(CC(C)(C)C)c2ccc(Cl)cc21 (centres undefined),> 0.6
5,COc1ccccc1C1OCCN([C@H]2CC[C@H](C(=O)O)CC2)C(=O)CC(=O)N(CC(C)(C)C)c2ccc(Cl)cc21 (some centres undefined),0.023
6,CCOC(=O)C1CCC(N2CCOC(c3ccccc3OC)c3cc(Cl)ccc3N(CC(C)(C)C)C(=O)CC2=O)CC1 (centres undefined),0.03
7,COc1ccccc1C1OCCCN(C(=O)C(=O)O)CC(=O)N(CC(C)(C)C)c2ccc(Cl)cc21 (centres undefined),≥ 0.26
8,COc1ccccc1C1OCCC(=O)N(CC(=O)N2CCCC(C(=O)O)C2)CC(=O)N(CC(C)(C)C)c2ccc(Cl)cc21 (centres undefined),> 0.6
9,CCOC(=O)C1CCN(C(=O)N2CCCOC(c3ccccc3OC)c3cc(Cl)ccc3N(CC(C)(C)C)C(=O)C2)CC1 (centres undefined),0.047
10,COc1ccccc1[C@@H]1OCCCN(C(=O)N2CCC(CC(=O)O)CC2)CC(=O)N(CC(C)(C)C)c2ccc(Cl)cc21,1.4
11,COc1ccccc1C1OCCN([C@@H]2CCC[C@@H](C(=O)O)C2)C(=O)CC(=O)N(CC(C)(C)C)c2ccc(Cl)cc21 (some centres undefined),0.004
12,CCOC(=O)C1CCCN(C(=O)CN2CC(=O)N(CC(C)(C)C)c3ccc(Cl)cc3C(c3ccccc3OC)OCCC2=O)C1 (centres undefined),> 0.6
13,COc1ccccc1[C@H]1OCCCN(C(=O)N2CCC(CC(=O)O)CC2)CC(=O)N(CC(C)(C)C)c2ccc(Cl)cc21,0.0044
14,COc1ccccc1C1OCCN([C@H]2CCC[C@@H](C(=O)O)C2)C(=O)CC(=O)N(CC(C)(C)C)c2ccc(Cl)cc21 (some centres undefined),> 0.6
15,CCOC(=O)C1CCCN(C(=O)N2CCCOC(c3ccccc3OC)c3cc(Cl)ccc3N(CC(C)(C)C)C(=O)C2)C1 (centres undefined),> 0.6
16,COc1ccccc1C1OCC(=O)NCCC(=O)N(CC(C)(C)C)c2ccc(Cl)cc21 (centres undefined),> 0.6
17,CCOC(=O)C1CCN(C(=O)CN2CCOC(c3ccccc3OC)c3cc(Cl)ccc3N(CC(C)(C)C)C(=O)CC2=O)CC1 (centres undefined),0.39
18,COc1ccccc1[C@@H](O)c1cc(Cl)ccc1N(CC(C)(C)C)C(=O)CCC(=O)N1CCC[C@H](C(=O)O)C1,0.0006
19,COc1ccccc1C1OCCC(=O)N(CC(=O)O)CC(=O)N(CC(C)(C)C)c2ccc(Cl)cc21 (centres undefined),> 0.6
20,COc1ccccc1C1OCCNCCC(=O)N(CC(C)(C)C)c2ccc(Cl)cc21 (centres undefined),> 0.6
21,COc1ccccc1C1OCCN(C2CCCN(C(=O)C(=O)O)C2)C(=O)CC(=O)N(CC(C)(C)C)c2ccc(Cl)cc21 (centres undefined),0.021
22,COc1ccccc1C1OCCN(C(=O)C(F)(F)F)CCC(=O)N(CC(C)(C)C)c2ccc(Cl)cc21 (centres undefined),> 0.6
23,CCOC(=O)[C@H]1CC[C@@H](N2CCOC(c3ccccc3OC)c3cc(Cl)ccc3N(CC(C)(C)C)C(=O)CC2=O)CC1 (some centres undefined),0.026
24,CCOC(=O)C(=O)N1CCOC(c2ccccc2OC)c2cc(Cl)ccc2N(CC(C)(C)C)C(=O)CC1 (centres undefined),> 0.6
25,CCOC(=O)[C@H]1CCC[C@@H](N2CCOC(c3ccccc3OC)c3cc(Cl)ccc3N(CC(C)(C)C)C(=O)CC2=O)C1 (some centres undefined),0.018

# System: Hepatocyte
# Test: Inhibition of cholesterol biosynthesis in rat hepatocytes preincubated for 1 hr followed by [14C]mevalonolactone addition and measured after 1 hr by liquid scintillation counter analysis
# Type: functional, cell-based
# Settings: not given
row,SMILES,IC50 [µM]
1,COc1ccccc1[C@@H]1OCCCN(C(=O)N2CCC(CC(=O)O)CC2)CC(=O)N(CC(C)(C)C)c2ccc(Cl)cc21,> 3
2,COc1ccccc1[C@H]1OCCCN(C(=O)N2CCC(CC(=O)O)CC2)CC(=O)N(CC(C)(C)C)c2ccc(Cl)cc21,0.12
3,COc1ccccc1[C@@H](O)c1cc(Cl)ccc1N(CC(C)(C)C)C(=O)CCC(=O)N1CCC[C@H](C(=O)O)C1,0.12

# System: not listed separately
# Test: Effect on triglyceride level in hamster assessed as increase in triglyceride level in serum at 100 mg/kg, po bid administered at 9 a.m and 4 p.m for 14 days relative to control
# Type: functional, Cricetinae
# Settings: time 14 day
row,SMILES,Activity [%]
1,COc1cccc([C@H]2O[C@H](CC(=O)N3CCC(CC(=O)O)CC3)C(=O)N(CC(C)(C)CO)c3ccc(Cl)cc32)c1OC,8

# System: marmosets
# Test: Lipid lowering effect in chow diet fed marmosets assessed as reduction in total cholesterol level in serum at 10 mg/kg, po qd administered once a day to 9 to 10 a.m for 7 days relative to control
# Type: functional, Callitrichinae sp.
# Design: scale not given: the % may be the effect or the level left
# Settings: time 7 day
row,SMILES,Activity [%]
1,COc1cccc([C@H]2O[C@H](CC(=O)N3CCC(CC(=O)O)CC3)C(=O)N(CC(C)(C)CO)c3ccc(Cl)cc32)c1OC,24

# System: marmosets
# Test: Lipid lowering effect in chow diet fed marmosets assessed as reduction in non-HDL level in serum at 10 mg/kg, po qd administered once a day to 9 to 10 a.m for 7 days relative to control
# Type: functional, Callitrichinae sp.
# Design: scale not given: the % may be the effect or the level left
# Settings: time 7 day
row,SMILES,Activity [%]
1,COc1cccc([C@H]2O[C@H](CC(=O)N3CCC(CC(=O)O)CC3)C(=O)N(CC(C)(C)CO)c3ccc(Cl)cc32)c1OC,34

# System: marmosets
# Test: Lipid lowering effect in chow diet fed marmosets assessed as reduction in HDL level in serum at 10 mg/kg, po qd administered once a day to 9 to 10 a.m for 7 days relative to control
# Type: functional, Callitrichinae sp.
# Design: scale not given: the % may be the effect or the level left
# Settings: time 7 day
row,SMILES,Activity [%]
1,COc1cccc([C@H]2O[C@H](CC(=O)N3CCC(CC(=O)O)CC3)C(=O)N(CC(C)(C)CO)c3ccc(Cl)cc32)c1OC,3

# System: marmosets
# Test: Lipid lowering effect in chow diet fed marmosets assessed as reduction in triglyceride level in serum at 10 mg/kg, po qd administered once a day to 9 to 10 a.m for 7 days relative to control
# Type: functional, Callitrichinae sp.
# Design: scale not given: the % may be the effect or the level left
# Settings: time 7 day
row,SMILES,Activity [%]
1,COc1cccc([C@H]2O[C@H](CC(=O)N3CCC(CC(=O)O)CC3)C(=O)N(CC(C)(C)CO)c3ccc(Cl)cc32)c1OC,38

# Reference: ChEMBL document CHEMBL5543119, “Discovery of Novel 11-Membered Templates as Squalene Synthase Inhibitors” (J Med Chem, 2024)
